Source: patent publication US11999727B2 (Tango Therapeutics, Inc., priority 2020, dated 2024)

How the values were obtained:
[1] = tested on: HAP1 MTAP-deleted cell line; experiment: Viability assay, MTAP-deleted cell line; type: cell-based; details: Homo sapiens, HAP1, viability assay, HAP1 MTAP-deleted; read-out: HAP1 MTAP deleted viability
Description: Table 1 additionally indicates IC50 values in a viability assay for the MTAP-deleted cell line (column 10), indicating the effect of treatment with compound on cell survival.

[2] = target: T1, PRMT5 (Homo sapiens, UniProt O14744); experiment: PRMT5 biochemical IC50 assay with no cofactor; details: PRMT5, no cofactor; read-out: No Cofactor/rel IC50
T1 construct: purchased Viva (custom protein)
Description: Table 1 indicates IC50 values (μM) against PRMT5 for exemplary compounds in the presence of SAM as cofactor, with no cofactor, and with MTA as cofactor, respectively (columns 4-6). […] Ki values can be calculated from the IC50 values as described in the Examples section. As detailed in the Examples section, for the assay performed in the presence of SAM, IC50=Ki×1.5 (Ki=IC50/1.5).

[3] = target: T1, PRMT5; experiment: PRMT5 biochemical IC50 assay with MTA as cofactor; details: PRMT5, MTA as cofactor; read-out: MTA IC50
[4] = tested on: HAP1 MTAP-intact cell line; experiment: SDMA in-cell western assay, HAP1 MTAP-intact; type: cell-based; details: Homo sapiens, HAP1, SDMA in-cell western, HAP1 MTAP-intact; read-out: MTAP HAP1 intact IC50
Outline: (§1)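 MTAP-null vs endogenous-MTAP HAP1 isogenic cells; in-cell western SDMA readout; IC50 per line.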

[5] = target: T1, PRMT5; experiment: PRMT5 biochemical IC50 assay with SAM as cofactor; details: PRMT5, SAM as cofactor; read-out: SAM IC50
[6] = tested on: HAP1 MTAP-deleted cell line; experiment: SDMA in-cell western assay, HAP1 MTAP-deleted; type: cell-based; details: for IC50: Homo sapiens, HAP1, SDMA in-cell western, HAP1 MTAP-deleted, read-out: HAP1 MTAP deleted IC50; for MTAP intact/deleted ratio: IC50 ratio HAP1 MTAP-intact / HAP1 MTAP-deleted, SDMA in-cell western
Outline: as §1

T1 sequence (O14744 whole entry): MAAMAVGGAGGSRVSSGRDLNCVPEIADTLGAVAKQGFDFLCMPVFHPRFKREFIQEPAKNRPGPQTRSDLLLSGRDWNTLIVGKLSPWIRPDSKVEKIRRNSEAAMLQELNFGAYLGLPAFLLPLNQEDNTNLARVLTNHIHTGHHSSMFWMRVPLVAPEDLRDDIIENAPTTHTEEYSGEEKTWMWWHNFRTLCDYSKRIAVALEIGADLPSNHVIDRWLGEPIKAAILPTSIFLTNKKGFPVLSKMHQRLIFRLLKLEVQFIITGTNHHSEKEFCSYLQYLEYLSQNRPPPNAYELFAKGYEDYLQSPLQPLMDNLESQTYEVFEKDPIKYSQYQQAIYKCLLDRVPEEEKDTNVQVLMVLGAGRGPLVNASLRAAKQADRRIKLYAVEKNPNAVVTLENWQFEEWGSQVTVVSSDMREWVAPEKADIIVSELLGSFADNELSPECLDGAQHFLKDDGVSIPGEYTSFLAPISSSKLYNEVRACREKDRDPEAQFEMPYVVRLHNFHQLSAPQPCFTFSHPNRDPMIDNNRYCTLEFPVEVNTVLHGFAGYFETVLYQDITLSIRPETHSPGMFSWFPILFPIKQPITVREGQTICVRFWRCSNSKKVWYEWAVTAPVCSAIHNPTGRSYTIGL
T1 sequence (Q9BQA1 whole entry partner): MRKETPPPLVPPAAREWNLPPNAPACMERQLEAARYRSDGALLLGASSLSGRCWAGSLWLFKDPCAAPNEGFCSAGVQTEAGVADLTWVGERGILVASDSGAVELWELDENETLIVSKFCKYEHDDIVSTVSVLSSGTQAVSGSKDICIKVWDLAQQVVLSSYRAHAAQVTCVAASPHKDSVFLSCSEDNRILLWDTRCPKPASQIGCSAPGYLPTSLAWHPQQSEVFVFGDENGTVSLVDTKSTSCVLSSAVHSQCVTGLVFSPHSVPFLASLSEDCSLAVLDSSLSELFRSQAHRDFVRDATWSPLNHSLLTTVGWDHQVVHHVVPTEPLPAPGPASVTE

| Compound | IC50 [2] | IC50 [3] | IC50 [4] | IC50 [5] | IC50 [6] | IC50 [1] | MTAP intact/deleted ratio [6] |
| --- | --- | --- | --- | --- | --- | --- | --- |
| C[C@H]1CC[C@H](c2cc3[nH]ncc3s2)N(C(=O)C(=O)Nc2cncc(C(N)=O)c2)C1 (single isomer, unassigned) [Compound 873, 5-(2-(5-methyl-2-(1H-thieno[3,2-c]pyrazol-5-yl)piperidin-1-yl)-2-oxoacetamido)nicotinamide] | 50 to 500 nM | < 50 nM | > 1000 nM | 50 to 500 nM | < 100 nM | < 1000 nM | A (an IC50 ratio greater than or equal to 10 fold) |
| Cc1ncc(NC(=O)C(=O)N2C[C@H](C)CC[C@H]2c2ccc3c(c2)CCC(=O)N3)cc1C(F)F (single isomer, unassigned) [Compound 874] | 50 to 500 nM | < 50 nM | 100 to 1000 nM | 50 to 500 nM | < 100 nM | < 1000 nM | A (an IC50 ratio greater than or equal to 10 fold) |
| COc1ncc(NC(=O)C(=O)N2C[C@@H](C)CC[C@@H]2c2ccn(-c3cc[nH]n3)n2)cc1C(N)=O (single isomer, unassigned) [Compound 881] | > 500 nM | > 500 nM | > 1000 nM | > 500 nM | > 1000 nM | > 10000 nM | B (an IC50 ratio greater than or equal to 3 fold but lower than 10 fold) |
| C[C@H]1CC[C@H](c2ccn(-c3cc[nH]n3)n2)N(C(=O)C(=O)Nc2cncc(C(N)=O)c2)C1 (single isomer, unassigned) [Compound 882] | > 500 nM | > 500 nM | > 1000 nM | > 500 nM | > 1000 nM | > 10000 nM | C (an IC50 ratio of less than 3 fold) |
| C[C@@H]1CC[C@@H](c2cccc3[nH]ncc23)N(C(=O)C(=O)Nc2cncc(C(N)=O)c2)C1 (single isomer, unassigned) [Compound 883] | > 500 nM | > 500 nM | > 1000 nM | > 500 nM | > 1000 nM | > 10000 nM | C (an IC50 ratio of less than 3 fold) |

Continued, in another order:

| IC50 [2] | IC50 [3] | IC50 [4] | IC50 [5] | IC50 [6] | Compound | IC50 [1] | MTAP intact/deleted ratio [6] |
| --- | --- | --- | --- | --- | --- | --- | --- |
| > 500 nM | > 500 nM | > 1000 nM | > 500 nM | > 1000 nM | CNc1nc2cc([C@@H]3CC[C@@H](C)CN3C(=O)C(=O)Nc3cnc(OC)c(C(N)=O)c3)ccc2s1 (single isomer, unassigned) [Compound 875] | > 10000 nM | B (an IC50 ratio greater than or equal to 3 fold but lower than 10 fold) |
| > 500 nM | > 500 nM | > 1000 nM | > 500 nM | > 1000 nM | CNc1ccc([C@H]2CC[C@H](C)CN2C(=O)C(=O)Nc2cnc(N)c(C)c2)cn1 (single isomer, unassigned) [Compound 876] | > 10000 nM | B (an IC50 ratio greater than or equal to 3 fold but lower than 10 fold) |
| 50 to 500 nM | < 50 nM | > 1000 nM | 50 to 500 nM | < 100 nM | CNc1nc2cc([C@@H]3CC[C@@H](C)CN3C(=O)C(=O)Nc3cncc(C(N)=O)c3)ccc2s1 (single isomer, unassigned) [Compound 877] | < 1000 nM | A (an IC50 ratio greater than or equal to 10 fold) |
| > 500 nM | > 500 nM | > 1000 nM | > 500 nM | > 1000 nM | CCc1cc(NC(=O)C(=O)N2C[C@@H](C)CC[C@@H]2c2ccc(NC)nc2)cnc1N (single isomer, unassigned) [Compound 878] | > 10000 nM | C (an IC50 ratio of less than 3 fold) |
